Reference: patent US10155751B2, “Pyrazolyl-substituted heteroaryls and their use as medicaments” (Boehringer Ingelheim International GmbH, priority 2015, dated 2018)
Read-outs that look alike come from different tables or passages of the source.

Assays:
[1] = system: human hepatocytes; assay: Human hepatocyte stability test; assay type: in vitro ADME; details: human hepatocyte suspension, percent of hepatic blood flow
Method: A more comprehensive way to measure the metabolic stability of a compound of the instant invention than microsomal stability (section 5.6) is the human hepatocyte stability test as described below. Herein the metabolic degradation for the compound in question is performed in a human hepatocyte suspension.
Human hepatocytes (typically cryopreserved) are incubated in an appropriate buffer system (e.g. Dulbecco's modified eagle medium plus 3.5 μg glucagon/500 mL, 2.5 mg insulin/500 mL and 3.75 mg/500 mL hydrocortison) containing 5% species serum.
Following a (typically) 30 min preincubation in an incubator (37° C., 10% CO2) 5 μl of the solution of the compound to be tested ([…]; from 2 mM in DMSO stock solution diluted 1:25 with medium) are added into 395 μl hepatocyte suspension (cell density is in the range of 0.25-5 Mio cells/mL, typically 1 Mio cells/mL; the final concentration of the compound in question is […], the final DMSO concentration is 0.05%).
The cells are incubated for six hours (incubator, orbital shaker) and samples (25 μl) are taken at 0, 0.5, 1, 2, 4 and 6 hours. Samples are transferred into acetonitrile and pelleted by centrifugation (5 min). The supernatant is transferred to a new 96-deepwell plate, evaporated under nitrogen and resuspended.
The decline of the compound to be tested is analyzed by HPLC-MS/MS.
CLint is calculated as follows CL_INTRINSIC=Dose/AUC=(C0/CD)/(AUD+clast/k)×1000/60.
C0: initial concentration in the incubation [μM], CD: cell density of vital cells [10^6 cells/mL], AUD: area under the data [μM×h], clast: concentration of last data point [μM], k: slope of the regression line for the compound in question decline [h−1].
The calculated in vitro hepatic intrinsic clearance can be scaled up to the intrinsic in vivo hepatic Clearance and used to predict hepatic in vivo blood clearance (CL) by the use of a liver model (well stirred model). CL_INTRINSIC_INVIVO [ml/min/kg]=(CL_INTRINSIC [μL/min/10^6cells]×hepatocellularity[10^6 cells/g liver]×liver factor [g/kg bodyweight])/1000 CL [ml/min/kg]=CL_INTRINSIC_INVIVO [ml/min/kg]×hepatic blood flow [ml/min/kg]/(CL_INTRINSIC_INVIVO [ml/min/kg]+hepatic blood flow [ml/min/kg]) Qh[%]=CL [ml/min/kg]/hepatic blood flow [ml/min/kg]) […]
Hepatocellularity, human: 120×10^6 cells/g liver
Liver factor, human: 25.7 g/kg bodyweight
Blood flow, human: 21 ml/(min×kg)
A satisfying human hepatocyte stability for a compound in question measured by this assay is represented by a Qh<20% (whereby the stability is better, the lower the Qh-value is).

[2] = system: SYK dependent basophil degranulation (CD63 surface expression on basophils in whole blood); assay: CD63-assay (cellular assay for SYK-inhibition) in whole blood; assay type: cell-based
Method: In this assay, IgE raised against dinitrophenol (DNP) is incubated in whole blood where it binds to the FcεR1 on basophils. […] CD63 normally resides on the intracellular granule membrane within basophils, which upon degranulation, is then expressed on the surface where it can be detected by flow cytometry. Surface expression of CD63 correlates extremely well with the release of histamine from basophils. The CD63 assay has previously been validated as a clinical target engagement biomarker in the Fostamatinib SYK program (Braselmann et al, J. Pharm. Exp. Therap. 319:998-1008, 2006). Heparinized whole blood is mixed gently (vortex mixer) and […] per test aliquoted into a 96 well plate. Anti-DNP (1 mg/ml) is diluted 1:100 with PBS/0.1% HSA to 10 μg/ml (final concentration: 1 μg/mL). Pre-dilute DNP/BSA (5 mg/ml) to a concentration of 60 ng/ml with washing solution. Compounds: […] Reagents are provided from the Basotest® kit. Incubate 10 μl of 10 μg/ml anti DNP and 10 μl of compound with 100 μl whole blood in a 37° C. pre-warmed water bath. After 30 minutes, 20 μl of STIMULATION BUFFER is added to the whole blood samples and vortexed gently. Incubate the samples for 10 min at 37° C. in a water bath. 100 μl of DNP/BSA is added per test to the whole blood. Add 100 μl of the WASHING SOLUTION to a further test tube as a negative control. Add 100 μl of DNP/BSA (final 30 ng/ml) in the compound tubes. All tubes are mixed once more. The samples are incubated for 20 min at 37° C. in a water bath. Stop degranulation by incubating the samples on ice for 5 min. Add 20 μl of STAINING REAGENT to each tube. Vortex and incubate the tubes for 20 min in an ice bath, covered to prevent exposure to light. The whole blood samples are lysed and fixed with 2 ml of pre-warmed (room temperature) 1×LYSING SOLUTION. Vortex and incubate for 10 min at room temperature. Spin down cells (5 min, 250×g, 4° C.). Discard the supernatant. Add 3 ml of WASHING SOLUTION to the tubes. Centrifuge the tubes (5 min, 250×g, 4° C.). Aspirate the supernatant. Add 200 μl WASHING SOLUTION to the cell pellet, vortex. Incubate the tubes in a covered ice bath until analysis. Cells are analysed by flow cytometry using the blue-green excitation light (488 nm argon-ion laser). Acquire data by using fluorescence triggering in the FL2 channel (PE) to gate on basophilic granulocytes expressing high amounts of IgE. This live gating reduces the amount of data and saves memory capacity. Acquire at least 500 basophils per sample. For data evaluation and calculation, the measurement of the negative control (unstimulated blood) was set as 100% control and the measurement of the positive control (DNP/anti-DNP stimulated blood) was set as 0% control. Based on these values the % value for the measurement of each substance concentration was calculated, a concentration-effect curve fitted and an EC50 value calculated using GraphPad Prism version 6.01 for Windows. The EC50 value was calculated using a nonlinear fitting (log(inhibitor) vs. response—variable slope). Normally, the % control values calculated are between 0% and 100% values but may also occur outside these limits in individual cases based on variability or compound characteristics.

[3] = whole blood, DNP/anti-DNP stimulated basophils, read-out: CD63 assay EC50-value (chapter 5.2)

In the case of Cc1c2c(O[C@H](C)[C@H]3CNC(=O)C3)cc(-c3cnn(C(C)C)c3)cc2nn1C [Example 18, (R)-4-{(R)-1-[6-(1-Isopropyl-1H-pyrazol-4-yl)-2,3-dimethyl-2H-indazol-4-yloxy]-ethyl}-pyrrolidin-2-one], the “stability in human hepatocytes (chapter 5.7) HEPhu” value (“stability in human hepatocytes” for short) [1] is reported as under 4 % Qh and the EC50 [2, 3] is reported as 95 nM.
Cc1c2c(O[C@H](C)[C@H]3CNC(=O)C3)cc(-c3cnn(CC(C)C)c3)cc2nn1C [Example 19, (R)-4-{(R)-1-[6-(1-Isobutyl-1H-pyrazol-4-yl)-2,3-dimethyl-2H-indazol-4-yloxy]-ethyl}-pyrrolidin-2-one] was tested, and the “stability in human hepatocytes” value [1] was 7 % Qh and the EC50 [2, 3] was 107 nM.
For Cc1c2c(O[C@H](C)[C@H]3CNC(=O)C3)cc(-c3cnn(C4CC4)c3)cc2nn1C [Example 20, (R)-4-{(R)-1-[6-(1-Cyclopropyl-1H-pyrazol-4-yl)-2,3-dimethyl-2H-indazol-4-yloxy]-ethyl}-pyrrolidin-2-one], the “stability in human hepatocytes” value [1] was under 4 % Qh and the EC50 [2, 3] was 134 nM.
Cc1c2c(O[C@H](C)[C@H]3CNC(=O)C3)cc(-c3cnn(C4CCC4)c3)cc2nn1C [Example 21, (R)-4-{(R)-1-[6-(1-Cyclobutyl-1H-pyrazol-4-yl)-2,3-dimethyl-2H-indazol-4-yloxy]-ethyl}-pyrrolidin-2-one] was tested, and the “stability in human hepatocytes” value [1] was 7 % Qh and the EC50 [2, 3] was 76 nM.
Cc1c2c(O[C@H](C)[C@H]3CNC(=O)C3)cc(-c3cnn(C4CCC(F)(F)C4)c3)cc2nn1C (stereo partly drawn) [Example 22, (R)-4-((R)-1-{6-[1-(3,3-Difluoro-cyclopentyl)-1H-pyrazol-4-yl]-2,3-dimethyl-2H-indazol-4-yloxy}-ethyl)-pyrrolidin-2-one] was tested, and the “stability in human hepatocytes” value [1] was 3 % Qh and the EC50 [2, 3] was 67 nM.
For C[C@@H](Oc1nc(-c2cnn(C(C)(C)C)c2)cc2ncn(C)c12)[C@H]1CNC(=O)C1 [example 3A.02, on page 196 of WO15017610, reference compound], the “stability in human hepatocytes” value [1] was 7 % Qh, the EC50 ([2]; read-out: EC50 in CD63-assay) was under 150 nM and the EC50 [2, 3] was 42 nM.
With C[C@@H](Oc1cc(-c2cnn(C(C)(C)C)c2)cc2ncn(C)c12)[C@H]1CNC(=O)C1 [example 3B.22 on page 219 of WO15017610, reference compound] the “stability in human hepatocytes” value [1] was 5 % Qh, the EC50 ([2]; read-out: EC50 in CD63-assay) was under 150 nM and the EC50 [2, 3] was 29 nM.
Cc1cnn2cc(-c3cnn(C(C)(C)C)c3)nc(O[C@H](C)[C@H]3CNC(=O)C3)c12 [example 5.20 on page 506 of WO15017610, reference compound] was tested, and the “stability in human hepatocytes” value [1] was 31 % Qh, the EC50 ([2]; read-out: EC50 in CD63-assay) was under 150 nM and the EC50 [2, 3] was 77 nM.
In the case of Cc1cnn2cc(-c3cnn(C(C)(C)C)c3)cc(O[C@H](C)[C@H]3CNC(=O)C3)c12 [example 6.09 on page 559 of WO15017610, reference compound], the “stability in human hepatocytes” value [1] is reported as 17 % Qh, the EC50 ([2]; read-out: EC50 in CD63-assay) is reported as under 150 nM and the EC50 [2, 3] is reported as 20 nM.
Cc1cc2c(O[C@H](C)[C@H]3CNC(=O)C3)cc(-c3cnn(C(C)(C)C)c3)cn2n1 [example 6.60 on page 587 of WO15017610, reference compound] was tested, and the “stability in human hepatocytes” value [1] was under 4 % Qh, the EC50 ([2]; read-out: EC50 in CD63-assay) was 483 nM and the EC50 [2, 3] was 483 nM.
